Results as given in patent EP0051773A1, “Penicillins, their salts, process for their preparation and pharmaceutical compositions containing them” (Dr. Karl Thomae GmbH, priority 1980, dated 1982).
Values after ≈ are worked out from the molar mass of the structure shown.

Legend:
E.coli ATCC 11 775 = experiment: experimental intraperitoneal infection in mice, ED50 (survival); type: in vivo, Mäuse; conditions: Escherichia coli, ATCC 11 / ATCC 1175, sc, 168 h; female NMRI mice, i.p. infection, s.c. application, treated once, 7 days observation
Procedure: Eine Reihe der erfindungsgemäßen Verbindungen wurde in vivo bei experimentellen Infektionen an Mäusen untersucht. Man verwendete als pathogene Bakterien E.coli ATCC 11 775 und Pseudomonas aeruginosa Walter. Es wurde eine intraperitoneale Infektion mit 0,2 ml einer 5%igen Mucinsuspension der Bakterien gesetzt. Dies entspricht etwa 2x10^6 Keime E.coli bzw. 8x10^5 Keime Pseudomonas/Maus. Weibliche Mäuse vom Stamm NMRI wurden in Gruppen von jeweils 10 Tieren aufgeteilt, zwei Gruppen blieben unbehandelt, die restlichen Gruppen wurden mit verschiedenen Dosen der jeweiligen erfindungsgemäßen Penicilline zur Bestimmung der ED50 (Dosis, bei der 50 % der Tiere überleben) behandelt. Bei der E.coli-Infektion wurde einmal therapiert. Bei der Pseudomonas-Infektion wurde dreimal behandelt.
Der Beobachtungszeitraum betrug in beiden Fällen 7 Tage. Die Ergebnisse dieser Teste mit repräsentativen Vertretern der erfindungsgemäßen Penicilline sind in der Tabelle 3 dargestellt.

[1] = system: Enterobacter cloacae ATCC 13 047; experiment: serial dilution test in microtiter system (bacteriostasis, MIC); type: cell-based; conditions: ATCC13, liquid medium, 18 to 20 h at 37°C, read-out: MHK-Werte Eb. cloacae 13 047
Procedure: (§1) Für die Untersuchungen wurde die Methode des Reihenverdünnungstestes im Mikrotitersystem angewandt. Die Prüfung der Substanzen auf Bakteriostase erfolgte in flüssigem Medium. Es wurde die Bakteriostasewirkung bei folgenden Konzentrationen untersucht.
(§2) Es wurde ein Nährboden folgender Zusammensetzung benutzt: 10 g Pepton, 8 g Fleischextrakt-Oxoid, 3 g Natriumschlorid, 2 g sek. Natriumphosphat werden mit dest. Wasser auf 1000 ml aufgefüllt (pH 7,2-7,4). Lediglich bei der Testung gegen Streptokokken wurde 1% Glucose hinzugefügt. Das Alter der Primärkulturen betrug etwa 20 Stunden. Die Einstellung der Keimsuspension erfolgte am Photometer (nach "Eppendorf") (Reagenzglas-Durchmesser 14 mm, Filter 546 nm) anhand der Trübung einer Bariumsulfat-Vergleichssuspension, die durch eine Bariumsulfat-Aufschwemmung erzeugt wurde, welche durch die Zugabe von 3,0 ml 1%ige Bariumchloridlösung in 97 ml 1%ige Schwefelsäure entstand. Nach der Einstellung wurden Streptococcus Aronson im Verhältnis 1:15 und die übrigen Testkeime im Verhältnis 1:1500 mit einer Kochsalzlösung weiter verdünnt.
(§3) 16 mg der jeweiligen Substanz wurden in 10 ml-Meßkolben eingewogen und mit dem Lösungsmittel bis zur Marke aufgefüllt. Die weitere Verdünnungsreihe wurde mit destilliertem Wasser oder dem jeweiligen Lösungsmittel hergestellt.
(§4) Die Vertiefungen der Mikrotiterplatten wurden mit 0,2 ml Nährmedium, 0,01 ml der entsprechenden Substanzverdünnung und mit einem Tropfen Keimsuspension (0,01 ml) beschickt und 18 bis 20 Stunden bei 37°C bebrütet. Eine Lösungsmittelkontrolle wurde stets mitgeführt.
(§5) Die Ablesung wurde makroskopisch vorgenommen, wobei die jeweilige Grenkonzentration (= niedrigste noch bakteriostatisch wirksame Konzentration) ermittelt wurde.
(§6) Als Testorganismen wurden benützt: - Staphylococcus aureus SG 511, Escherichia coli ATCC 11 775, Pseudomonas aeruginosa Hamburgensis und Walter, Serratia marcescens ATCC 13 880, Klebsiella pneumoniae ATCC 10 031 und BC 6, Proteus mirabilis Hamburgensis, Proteus rettgeri BC 7 und Enterobacter cloacae ATCC 13 047.
(§7) In der folgenden Tabelle 2 sind die ermittelten minimalen Hemmkonzentrationen (MIC) für typische Vertreter der erfindungsgemäßen Verbindungen aufgeführt, wobei sich die Ziffern auf die Penicilline der Tabelle 1 Seite 18 beziehen.

[2] = system: Escherichia coli ATCC 11 775; experiment: as above; type: cell-based; conditions: ATCC11, liquid medium, 18 to 20 h at 37°C, read-out: MHK-Werte E.coli ATCC 11 755
Procedure: as §1, §2, §3, §4, §5, §6, §7

[3] = system: Klebsiella pneumoniae ATCC 10 031; experiment: as above; type: cell-based; conditions: ATCC10, liquid medium, 18 to 20 h at 37°C, read-out: MHK-Werte Kl. pneum. ATCC 10 031
Procedure: as §1, §2, §3, §4, §5, §6, §7

[4] = system: Klebsiella pneumoniae BC 6; experiment: as above; type: cell-based; conditions: BC6, liquid medium, 18 to 20 h at 37°C, read-out: MHK-Werte Kl. pneum. BC 6
Procedure: as §1, §2, §3, §4, §5, §6, §7

[5] = system: Proteus mirabilis Hamburgensis; experiment: as above; type: cell-based; conditions: liquid medium, 18 to 20 h at 37°C, read-out: MHK-Werte Prot. mir. Hbg.
Procedure: as §1, §2, §3, §4, §5, §6, §7

Proteus rettgeri BC 7 = experiment: as above; type: cell-based; conditions: Providencia rettgeri, BC7; liquid medium, 18 to 20 h at 37°C; read-out: MHK-Werte Prot. rettg. BC 7
Procedure: as §1, §2, §3, §4, §5, §6, §7

[6] = system: Pseudomonas aeruginosa Hamburgensis; experiment: as above; type: cell-based; conditions: liquid medium, 18 to 20 h at 37°C, read-out: MHK-Werte Pseud. aerug. Hbg.
Procedure: as §1, §2, §3, §4, §5, §6, §7

[7] = system: Pseudomonas aeruginosa Walter; experiment: as above; type: cell-based; conditions: liquid medium, 18 to 20 h at 37°C, read-out: MHK-Werte Pseud. aerug. Walter
Procedure: as §1, §2, §3, §4, §5, §6, §7

[8] = system: Serratia marcescens ATCC 13 880; experiment: as above; type: cell-based; conditions: ATCC13, liquid medium, 18 to 20 h at 37°C, read-out: MHK-Werte Serr. marcesc. ATCC 13 880
Procedure: as §1, §2, §3, §4, §5, §6, §7

[9] = system: Staphylococcus aureus SG 511; experiment: as above; type: cell-based; conditions: SG511, liquid medium, 18 to 20 h at 37°C, read-out: MHK-Werte Staph. aureus SG 511
Procedure: as §1, §2, §3, §4, §5, §6, §7

| SMILES | MIC [1] [µg/mL] | MIC [2] [µg/mL] | MIC [3] [µg/mL] | MIC [4] [µg/mL] | MIC [5] [µg/mL] | MIC (Proteus rettgeri BC 7) [µg/mL] | MIC [6] [µg/mL] | MIC [7] [µg/mL] | MIC [8] [µg/mL] | MIC [9] [µg/mL] | ED50 (E.coli ATCC 11 775) [mg/kg] |
| --- | --- | --- | --- | --- | --- | --- | --- | --- | --- | --- | --- |
| CCCCNS(=O)(=O)c1ccc(Nc2ncc(NC(=O)N[C@@H](C(=O)N[C@@H]3C(=O)N4[C@@H]3SC(C)(C)[C@@H]4C(=O)O)c3ccc(O)cc3)c(O)n2)cc1 [Verbindung 20] |  |  |  |  |  |  |  |  |  |  | 6.6 |
| CCCCS(=O)(=O)c1ccc(Nc2ncc(NC(=O)NC(C(=O)NC3C(=O)N4C3SC(C)(C)C4C(=O)O)c3ccc(O)cc3)c(O)n2)cc1 (stereo not drawn) [Verbindung 32] | 1 (≈ 1.4 µM) | 0.12 (≈ 0.168 µM) | 1 (≈ 1.4 µM) | 0.5 (≈ 0.7 µM) | 0.06 (≈ 0.0841 µM) | 0.25 (≈ 0.35 µM) | 2 (≈ 2.8 µM) | 1 (≈ 1.4 µM) | 0.12 (≈ 0.168 µM) | 0.12 (≈ 0.168 µM) |  |
| CC1(C)SC2C(NC(=O)C(NC(=O)Nc3cnc(Nc4ccc(C(N)=O)cc4)nc3O)c3ccc(O)c(Cl)c3)C(=O)N2C1C(=O)O (stereo not drawn) [Verbindung 35] | 4 (≈ 5.96 µM) | 0.5 (≈ 0.745 µM) | 4 (≈ 5.96 µM) | 4 (≈ 5.96 µM) | 0.25 (≈ 0.373 µM) | 0.5 (≈ 0.745 µM) | 2 (≈ 2.98 µM) | 4 (≈ 5.96 µM) | 0.5 (≈ 0.745 µM) | 0.5 (≈ 0.745 µM) |  |
| CC1(C)SC2C(NC(=O)C(NC(=O)Nc3cnc(Nc4ccc(S(N)(=O)=O)c(O)c4)nc3O)c3ccc(O)c(Cl)c3)C(=O)N2C1C(=O)O (stereo not drawn) [Verbindung 49] | 1 (≈ 1.38 µM) | 0.25 (≈ 0.346 µM) | 1 (≈ 1.38 µM) | 1 (≈ 1.38 µM) | 0.12 (≈ 0.166 µM) | 0.5 (≈ 0.691 µM) | 2 (≈ 2.77 µM) | 2 (≈ 2.77 µM) | 0.25 (≈ 0.346 µM) | 0.25 (≈ 0.346 µM) |  |
| CC1(C)S[C@@H]2[C@H](NC(=O)C(NC(=O)Nc3cnc(NCc4ccc(F)cc4)nc3O)c3ccc(O)cc3)C(=O)N2[C@H]1C(=O)O (stereo partly drawn) [Verbindung 60] | 1 (≈ 1.6 µM) | 0.25 (≈ 0.4 µM) | 2 (≈ 3.2 µM) | 2 (≈ 3.2 µM) | 0.25 (≈ 0.4 µM) | 0.5 (≈ 0.799 µM) | 2 (≈ 3.2 µM) | 2 (≈ 3.2 µM) | 0.5 (≈ 0.799 µM) | 0.25 (≈ 0.4 µM) |  |

The remaining compounds from weak to strong by MIC [1], led by results:

| MIC [1] [µg/mL] | MIC [2] [µg/mL] | MIC [3] [µg/mL] | MIC [4] [µg/mL] | MIC [5] [µg/mL] | MIC (Proteus rettgeri BC 7) [µg/mL] | MIC [6] [µg/mL] | MIC [7] [µg/mL] | MIC [8] [µg/mL] | MIC [9] [µg/mL] | SMILES | ED50 (E.coli ATCC 11 775) [mg/kg] |
| --- | --- | --- | --- | --- | --- | --- | --- | --- | --- | --- | --- |
| 4 (≈ 5.66 µM) | 0.25 (≈ 0.354 µM) | 1 (≈ 1.42 µM) | 1 (≈ 1.42 µM) | 0.12 (≈ 0.17 µM) | 0.5 (≈ 0.708 µM) | 2 (≈ 2.83 µM) | 2 (≈ 2.83 µM) | 0.25 (≈ 0.354 µM) | 0.25 (≈ 0.354 µM) | CC1(C)SC2C(NC(=O)C(NC(=O)Nc3cnc(Nc4ccc(S(C)(=O)=O)cc4)nc3O)c3ccc(O)c(Cl)c3)C(=O)N2C1C(=O)O (stereo not drawn) [Verbindung 25] |  |
| 2 (≈ 2.94 µM) | 0.25 (≈ 0.368 µM) | 2 (≈ 2.94 µM) | 4 (≈ 5.89 µM) | 0.12 (≈ 0.177 µM) | 0.5 (≈ 0.736 µM) | 1 (≈ 1.47 µM) | 1 (≈ 1.47 µM) | 0.25 (≈ 0.368 µM) | 0.25 (≈ 0.368 µM) | CC1(C)S[C@@H]2[C@H](NC(=O)C(NC(=O)Nc3cnc(Nc4ccc(C(N)=O)c(C(N)=O)c4)nc3O)c3ccc(O)cc3)C(=O)N2[C@H]1C(=O)O (stereo partly drawn) [Verbindung 55] |  |
| 2 (≈ 3 µM) | 0.5 (≈ 0.751 µM) | 4 (≈ 6.01 µM) | 4 (≈ 6.01 µM) | 0.06 (≈ 0.0901 µM) | 1 (≈ 1.5 µM) | 2 (≈ 3 µM) | 2 (≈ 3 µM) | 0.5 (≈ 0.751 µM) | 0.5 (≈ 0.751 µM) | CC(=O)Oc1ccc(CNc2ncc(NC(=O)NC(C(=O)N[C@@H]3C(=O)N4[C@@H]3SC(C)(C)[C@@H]4C(=O)O)c3ccc(O)cc3)c(O)n2)cc1 (stereo partly drawn) [Verbindung 59] |  |
| 1 (≈ 1.69 µM) | 0.25 (≈ 0.423 µM) | 1 (≈ 1.69 µM) | 2 (≈ 3.38 µM) | 0.25 (≈ 0.423 µM) | 0.5 (≈ 0.845 µM) | 2 (≈ 3.38 µM) | 2 (≈ 3.38 µM) | 0.5 (≈ 0.845 µM) | 0.25 (≈ 0.423 µM) | CC1(C)S[C@@H]2[C@H](NC(=O)C(NC(=O)Nc3cnc(NCc4ccccc4)nc3O)c3ccccc3)C(=O)N2[C@H]1C(=O)O (stereo partly drawn) [Verbindung 61] |  |
